For one assay, the system named is EOMES, TBET and Ki67. The assay is described as follows: Immunofluorescence of T-cell exhaustion signature in CD8+ T-cells isolated from TME. To be noted: % change relative to control. Format: in vivo, mouse. As for the experimental part: FIG. 5 is a graphical representation showing that dual epigenetic-immunotherapy re-educates and re-programs the T-cell repertoire. A. Cells stimulated with PMA/ionomycin for 4 hours in the presence of Brefeldin A. Cells were surfaced stained with CD45, CD3, CD4, CD8, CD44, CD62L (for naïve, effector and central memory), CD25 and FoxP3 (for Tregs) and analyzed via Flow cytometry. A Mann-Whitney non-parametric t-test was used to compare control vs other groups (*p<0.05, n=2-5). […] Representative images for each dataset are shown. TNFI values for EOMES, TBET and Ki67 measured using Image) to select the nucleus minus background. Graphs represent the % change of expression relative to control group for CD8^+ T-cells. (n>20 individual cells, Group A=Control, Group C: PD1 (10 mg/kg), Group D: Phenelzine (40 mg/kg), Group F: PD1+Phenelzine). C. Cells stimulated with PMA/ionomycin for 4 hours in the presence of Brefeldin A. Cell were surfaced stained with CD45, CD3, CD4, CD8 and intracellular staining of IFN-γ, IL-2 and TNF-α in the presence of Brefeldin A and analyzed via flow cytometry. A Mann-Whitney non-parametric t-test was used to compare control vs other groups (*p<0.05, **p<0.008; n=2-5). […] Representative images for each dataset are shown. TNFI values for TNFα and IFNγ measured using ImageJ to select the nucleus minus background. Graphs represent the % change of expression relative to control group for CD8^+ T-cells. […]
(§1) A total of 2×10^5 cells were injected per mouse into mammary gland in 50 μL of phosphate buffered saline (PBS). […] Tumors were measured using calipers and the tumor volumes (mm3) were calculated using the formula (length×width2)/2. ? arvested cells from primary tumors where then cytospun ? -treated with poly-1-lysine and fixed then stored in PBS for IFA Microscopy Analysis. […] Digital images were analysed using ImageJ software (ImageJ, NIH, Bethesda, Md., USA) to determine the either the Total Nuclear Fluorescent Intensity (TNFI), the Total Cytoplasmic Fluorescent Intensity (TCFI) or total Fluorescent Intensity (TFI).

Assay [1] concerns T-cell activation and exhaustion genes. The assay is described as follows: Nanostring transcript analysis of CD8+ T-cells from 4T1 metastatic mouse model. It counts as in vivo. The procedure: FIG. 5 is a graphical representation showing that dual epigenetic-immunotherapy re-educates and re-programs the T-cell repertoire. A. Cells stimulated with PMA/ionomycin for 4 hours in the presence of Brefeldin A. Cells were surfaced stained with CD45, CD3, CD4, CD8, CD44, CD62L (for naïve, effector and central memory), CD25 and FoxP3 (for Tregs) and analyzed via Flow cytometry. A Mann-Whitney non-parametric t-test was used to compare control vs other groups (*p<0.05, n=2-5). […] Representative images for each dataset are shown. TNFI values for EOMES, TBET and Ki67 measured using Image) to select the nucleus minus background. Graphs represent the % change of expression relative to control group for CD8^+ T-cells. (n>20 individual cells, Group A=Control, Group C: PD1 (10 mg/kg), Group D: Phenelzine (40 mg/kg), Group F: PD1+Phenelzine). C. Cells stimulated with PMA/ionomycin for 4 hours in the presence of Brefeldin A. Cell were surfaced stained with CD45, CD3, CD4, CD8 and intracellular staining of IFN-γ, IL-2 and TNF-α in the presence of Brefeldin A and analyzed via flow cytometry. A Mann-Whitney non-parametric t-test was used to compare control vs other groups (*p<0.05, **p<0.008; n=2-5). […] Representative images for each dataset are shown. TNFI values for TNFα and IFNγ measured using ImageJ to select the nucleus minus background. […]

Another assay concerns the target T1, LSD1 and EOMES (Mus musculus, UniProt Q6ZQ88).
T1 construct: CD8^+ T-cells isolated from the 4T1 metastatic xenograft mouse model; endogenous in cells; host or cells: CD8+ T-cells isolated from the tumour micro-environment of treated 4T1 mice
The assay is described as follows: Immunofluorescence co-expression and co-localization of LSD1 and EOMES in CD8+ T-cells. Format: in vivo. The procedure:
FIG. 6 is a graphical and photographic representation depicting nuclear LSD1 complexes with EOMES in exhausted T-cell signatures. A. Nanostring transcript analysis was performed on isolated CD8^+ T-cells isolated from a 4T1 metastatic cancer mouse model treated with either Group A=Control, Group C: PD1 (10 mg/kg), Group D: Phenelzine (40 mg/kg), or Group F: PD1+Phenelzine. […] B. Immunofluorescence microscopy was performed on CD8^+ T-cells fixed and probed with primary anti-LSD1, anti-EOMES and anti-CD8 antibodies and DAPI. Representative images for each dataset are shown. […] C. […] Plot-profiles were plotted with the use of ImageJ software measuring a series of fluorescent intensities along a line spanning the nucleus. The pattern of the two plots can give an insight into the nature of the relationship between the two fluorochromes. Imagej software with automatic thresholding and manual selection ? for nucleus of cells was used to calculate the Pearson's co ? (PCC) for each pair of antibodies. The PCC Values range from −1=inverse of co-localization, 0=no co-localization, +1=perfect co-localization.
To unravel this role, the present inventors examined the co-expression of LSD1 and EOMES (an exhaustion marker) in CD8^+ T-cells isolated from the 4T1 metastatic xenograft mouse model.
This negative co-localization was unaffected by treatment with PD1 or LSD1 inhibitors (FIG. 7).
as §1, with “(PBS). Treatments were started on mice after 15 days post-inoculation of 4T1 cells.” for “(PBS).”

Data on one molecule can be found in patent US20210186905A1, “ENHANCING T-CELL FUNCTION AND TREATING A T-CELL DYSFUNCTIONAL DISORDER WITH A COMBINATION OF AN LSD INHIBITOR AND A PD-1 BINDING ANTAGONIST” (EpiAxis Therapeutic Pty Ltd, priority 2017, published 2021).

Molecules are shown by their SMILES. Where a name gives a salt, the structure may show the parent alone.

Consider `NNCCc1ccccc1` (racemic) [phenelzine sulfate, (±)-2-phenylethylhydrazine], for which, in the assay on EOMES, TBET and Ki67, the EOMES expression entry is reported as “strongly inhibit”, the Ki67 expression result is given as “more strongly” and the TBET expression entry is “more strongly”. Moreover, in assay [1], the “exhaustive signature genes such as CTLA4 and LAG3” value is listed as “inhibited”. At LSD1 and EOMES (CD8+ T-cells, nuclear TNFI), the EOMES expression entry was “marked inhibition” and the LSD1 expression entry is given as “marked inhibition”. The “LSD1/EOMES nuclear protein complex (co-localization, plot-profiles and PCC)” value on LSD1 and EOMES (nucleus of exhausted CD8+ T-cells) was “markedly inhibited”.
